Target: T1, Folate Uptake Transporter (PCFT) in Caco2 cells (Homo sapiens, UniProt Q96NT5)
T1 construct: These cells express high levels of the PCFT/SLC46A1 receptor; host or cells: Caco-2
T1 sequence (Q96NT5 1-459): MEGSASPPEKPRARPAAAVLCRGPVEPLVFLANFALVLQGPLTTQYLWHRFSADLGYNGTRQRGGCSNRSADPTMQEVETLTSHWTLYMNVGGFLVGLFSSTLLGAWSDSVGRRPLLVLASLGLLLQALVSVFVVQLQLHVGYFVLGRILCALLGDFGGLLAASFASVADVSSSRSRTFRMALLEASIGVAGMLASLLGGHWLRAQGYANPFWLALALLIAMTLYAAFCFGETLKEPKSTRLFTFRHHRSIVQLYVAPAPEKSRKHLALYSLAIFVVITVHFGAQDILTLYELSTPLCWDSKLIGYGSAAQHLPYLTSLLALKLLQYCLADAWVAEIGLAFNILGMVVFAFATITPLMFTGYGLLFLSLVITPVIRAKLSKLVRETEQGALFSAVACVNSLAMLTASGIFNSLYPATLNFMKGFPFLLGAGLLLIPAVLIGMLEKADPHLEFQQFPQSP
Experiment: Folate uptake transporter substrate assessment in Caco2 cell line (compound uptake with and without pemetrexed)
Format: in vitro ADME
Procedure: Cell Plates were Prepared According to the Methods of Example 8 Using Caco-2 Cells from American Type Culture Collection at Passage 37.
The transport buffer (HBSS with 10 mM MES, pH 5.5) was prepared by weighing 1.952 g of MES and 0.35 g sodium hydrogen carbonate and adding into 900 mL of pure water followed by sonication to dissolve the content. Following the transfer of 100 mL of 10×HBSS into the solution. The solution was placed on a stirrer, the pH was slowly adjusted with hydrochloric acid to 5.5, and then the solution was filtered to get HBSS solution (with 10 mM MES, pH 5.5).
The test compounds and folic acid (1 μM) substrate solutions were prepared by diluting with pH 5.5 buffer. Next, the test compounds and folic acid (1 μM) substrate solution+positive control inhibitor (pemetrexed, 50 μM) were prepared. For the solution without inhibitor, DMSO was diluted with corresponding substrate solution to get the working incubation solution.
For the solution with inhibitor, the pre-incubation solution was prepared by adding the positive control inhibitor (pemetrexed, 50 μM) in pH 5.5 buffer. For the solution without inhibitor, DMSO was diluted with pH 5.5 buffer and used as the vehicle control.
When the 8-10 day Caco-2 cultured cells reached confluence and were differentiated, they were ready to be used for transport studies. The Caco-2 plate was removed from the incubator, and the medium was removed from the 24-well Plates. Next, cells were washed 3 times with 300 μL of pre-warmed pH 5.5 buffer. Then, 300 μL of pre-incubation solution was added into each well and the plate was placed at 37° C. for 30 minutes. The assay was performed in duplicate. After 30 minutes pre-incubation, the pre-incubation solution was aspirated, and 300 μL of pre-warmed working incubation solution was added to start the transporter assay. After 6 minutes incubation, cells were washed by quickly adding/aspirating 300 μL of ice-cold pH 5.5 buffer 4 times. The pH 5.5 buffer was removed and 300 μL of pure water was added into each well. Freeze-thaw in liquid nitrogen and 37° C. incubator was repeated for 3 times to lyse cells. After, centrifugation at 3,300 g was performed for 30 seconds. Next, 50 μL of supernatant was transferred to 200 μL methanol or acetonitrile containing internal standard and centrifuged at 3,300 g for 30 minutes. 200 μL aliquots of the supernatants were used for LC-MS/MS analysis. Standards were treated the same as samples.
A BCA Kit was used to determine the protein content for each well. Bovine serum albumin at 2, 1, 0.5, 0.25, 0.125, 0.0625, 0.0313, 0.0156, 0.00781 and 0.00391 mg/mL was prepared in Phosphate Buffer Saline (PBS, pH 7.4). 10 μL of supernatant was mixed from the previous step with the same volume of PBS. 20 μL of standard or test sample was added into 96-well clear plate and mixed with 200 μL working reagent. After 30 minutes incubation at 37° C., the absorbance at 562 nm was measured on the microplate reader.
Standard-curves: prepared 200 μM DMSO Folic acid solution, samples of 1000 nm, 300 nm, 100 nm, 30 nM, and 10 nM prepared using a PH 5.5 buffer, and a PH 5.5 buffer containing 50 μM of pemetrexed, respectively.
All calculations were carried out using Microsoft Excel. Peak areas were determined from extracted ion chromatograms. Uptake rate, in unit of pmol/mg protein/min, is calculated using the following equation: Uptake rate=Conc./(Protein×Time); Conc. is concentration of drug in cell lysate (nM), Protein is the protein concentration of cell lysate (mg/mL), and Time is the incubation time (minute). Uptake ratio is calculated using the following equation: Uptake ratio=Uptake rate without inhibitor/Uptake rate with inhibitor. Note: The compound was considered as a potential substrate of a particular transporter when the uptake ratio was greater than 2.

cell permeability (Caco-2): least permeable
Uptake Ratio(−Inhibitor/+Inhibitor) (human, Caco-2, 6 min, 1 μM, pH 5.5): 0.76
Structure (SMILES): CC(=O)N1CCC(C(=O)N2CCN3C(=O)c4cc(-c5ccccc5)ccc4NC(=O)C3C2)CC1 (centres unmarked) [MPOL_B_1, 2-(1-acetylpiperidine-4-carbonyl)-8-phenyl-1,3,4,12a-tetrahydrobenzo[e]pyrazino[1,2-a][1,4]diazepine-6,12(2H,11H)-dione]
